pIC50: −log10 of the molar value.
Molecular target: Egl nine homolog 1 (Homo sapiens, UniProt Q9GZT9)
Test: Binding affinity to […] PHD2 (181 to 426 residues) (unknown origin) by fluorescence polarization assay

Sequence of Egl nine homolog 1 (Q9GZT9 whole entry, the tested form may be a part): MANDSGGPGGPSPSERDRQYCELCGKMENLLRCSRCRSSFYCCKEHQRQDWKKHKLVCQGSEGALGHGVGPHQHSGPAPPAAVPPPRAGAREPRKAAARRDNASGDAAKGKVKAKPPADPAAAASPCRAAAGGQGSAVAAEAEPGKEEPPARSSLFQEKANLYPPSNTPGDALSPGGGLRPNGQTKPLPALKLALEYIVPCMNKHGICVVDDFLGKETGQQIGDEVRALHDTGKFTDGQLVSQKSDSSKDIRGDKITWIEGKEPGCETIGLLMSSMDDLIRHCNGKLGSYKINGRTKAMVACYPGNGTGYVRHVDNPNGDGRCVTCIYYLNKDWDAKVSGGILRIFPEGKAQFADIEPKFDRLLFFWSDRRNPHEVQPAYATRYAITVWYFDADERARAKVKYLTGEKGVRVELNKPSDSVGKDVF

pIC50	SMILES
6.84	O=C(O)CNC(=O)c1ncc(C2CCN(C(=O)c3ccc(Cl)cc3Cl)CC2)cc1O
7.49	O=C(O)CNC(=O)c1ncc(C2CCN(C(=O)CNc3ccc(Cl)cc3Cl)CC2)cc1O
7.24	O=C(O)CNC(=O)c1ncc(C2CCN(C(=O)c3cccs3)CC2)cc1O

From ChEMBL document CHEMBL5331121, “Preferred Conformation-Guided Discovery of Potent and Orally Active HIF Prolyl Hydroxylase 2 Inhibitors for the Treatment of Anemia” (J Med Chem, 2023)
